How the values were obtained:
Rat Brain Mitochondria = test: Effect on Lipid Peroxide Production in Rat Brain Mitochondria (malondialdehyde, thiobarbituric acid method); assay type: biochemical, rat (male Wistar); settings: 1 hr at 37° C., 100 μM ascorbic acid, 20 μM FeSO4
Description: Effect on Lipid Peroxide Production in Rat Brain Mitochondria
Brain mitochondria from male Wistar rat was incubated with 100 μM ascorbic acid, 20 μM FeSO4 and test drug for 1 hr at 37° C. Malondialdehyde formed in the incubation mixture was measured by the thiobarbituric acid method according to Shimada et al (Biochem. Biophys. Acta, 489; 163-172. 1977)
Test compounds were dissolved in water

[1] = tested on: Arachidonic Acid-Induced Cerebral Edema in Rat; test: Effect on Arachidonic Acid-Induced Cerebral Edema in Rat; assay type: in vivo, rat (male Wistar); settings: for Water content, Contralatelal hemisphere / Water content, Infarcted hemisphere: N = 6; for Water content, Infarcted hemisphere: **P < 0.01
Description: Effect on Arachidonic Acid-Induced Cerebral Edema in Rat
Male wistar rats were anesthetized with ethyl ether. The right lingual and occipital arteries were ligated. Retrograde cannulation was performed at the bifurcation of the external and internal carotid arteries via the upper part of the right external artery. Arachidonic acid dissolved in 10% ethyl alcohol and 0.4% Na2 CO3 was injected into the internal carotid artery in a dose of 2 mg/0.2 ml/kg at a speed of 0.08 ml/min. Two hours after the injection of arachidonic acid, the animals were decapitated and water content in the infarcted and contralatelal hemisphere was measured. The test drug was administered intraperitoneally 30 min before the injection of arachidonic acid.
(§1) Test compounds were dissolved in saline.

Mice Subjected to Anoxia = test: Effect on Survival Time of Mice Subjected to Anoxia (100% N2); assay type: in vivo, mouse (male ICR); settings: 30 min before anoxia, n = 10, **P < 0.01 vs control
Description: Effect on Survival Time of Mice Subjected to Anoxia (100% N2)
A pair of male ICR mice with the same age was maintained in a close glass chamber in which circulated a current of nitrogen gas, and measured survival time. One mouse was pretreated intraperitoneally with the test compound, and another with the vehicle 30 min before the experiment.
as §1

[2] = 32 mg/kg i.p. 30 min before arachidonic acid, vehicle (1) 78.7 ± 0.4, (2), (3) 79.4 ± 0.2
[3] = 32 mg/kg i.p. 30 min before arachidonic acid, vehicle (1) 81.9 ± 0.4, (2), (3) 81.5 ± 0.4

SMILES | Inhibition % (malondialdehyde formation) (Rat Brain Mitochondria; at 10^-5 g/ml) | Water content, Contralatelal hemisphere [1, 2] | Water content, Infarcted hemisphere [1, 3] | further results
Cc1nc(-c2ccccc2)nc(-c2cccc([N+](=O)[O-])c2)c1C(=O)N1CCN(C)CC1 [Example 21, 6-methyl-5-(4-methylpiperazin-1-ylcarbonyl)-4-(3-nitrophenyl)-2-phenyl-pyrimidine] | 72.8% | 78.6 ± 0.1% | 79.7 ± 0.3% | 
Cc1nc(-c2ccccc2)nc(-c2cccc([N+](=O)[O-])c2)c1C(=O)NCCN1CCSCC1 [Example 36, 6-methyl-4-(3-nitrophenyl)-2-phenyl-N-[2-(4-thiomorpholino)ethyl]-5-pyrimidinecarboxamide] | 70.2% | 78.9 ± 0.1% | 79.5 ± 0.2% | 
CCCCC/C=C\C/C=C\C/C=C\C/C=C\CCCC(=O)O [Arachidonic acid, reference compound] |  |  |  | water content of the ipsilatelal hemisphere after injection into internal carotid artery (in words) ([1]; 2 mg/0.2 ml/kg, two hours after the injection): caused increase of water content
Cc1nc(-c2ccccc2)nc(-c2cccc([N+](=O)[O-])c2)c1C(=O)NCCN(C)C.O=C(O)/C=C/C(=O)O [Example 32, N-(2-dimethylaminoethyl)-6-methyl-4-(3-nitrophenyl)-2-phenyl-5-pyrimidinecarboxamide fumarate] |  | 79.3 ± 0.2% | 79.9 ± 0.1% | Survival time (Mice Subjected to Anoxia; 10 mg/kg intraperitoneally, control 30.5 ± 0.5): 37.0 ± 1.5 s; Survival time (Mice Subjected to Anoxia; 100 mg/kg intraperitoneally, control 39.0 ± 1.2): 50.0 s; Water content, Contralatelal hemisphere ([1]; 10 mg/kg i.p. 30 min before arachidonic acid, vehicle 78.7 ± 0.4): 79.0 ± 0.3%; Water content, Infarcted hemisphere ([1]; 10 mg/kg i.p. 30 min before arachidonic acid, vehicle 81.9 ± 0.4): 80.2 ± 0.1%
COC(=O)c1c(C)nc(-c2ccccc2)nc1-c1cc([N+](=O)[O-])ccc1SC [Example 26, methyl 6-methyl-4-(2-methylthio-5-nitrophenyl)-2-phenyl-5-pyrimidinecarboxylate] |  |  |  | Inhibition % (malondialdehyde formation) (Rat Brain Mitochondria; at 10^-4 g/ml): 90.9%

Reference: US4698340A, “Pyrimidine derivatives, processes for preparation thereof and composition containing the same” (Fujisawa Pharmaceutical Co., Ltd., priority 1984, dated 1987)
